Numbers after ± are expanded uncertainties.

The conditions of this data set: Crystal.

Broadly, the mass density is the mass of a sample divided by its volume. In the case of `Cc1ncc(COP(=O)(O)O)c(C=O)c1O.O` [pyridoxal 5-phosphate hydrate], the mass density (293 K, 101.33 kPa, Pycnometric method) was 1536 ± 5 kg/m3. The Normal melting temperature (DTA) stood at 148.56 ± 0.5 °C.

The values above are taken from the NIST ThermoML archive (doi:10.1021/acs.jced.8b00309).
